Measured values published in patent publication US20160377605A1, “LYSOSOMAL ATP SELECTIVE TWO-PHOTON ABSORBING FLUORESCENT PROBE” (POSTECH ACADEMY-INDUSTRY FOUNDATION, priority 2015, published 2016).

Legend:
[1] = Absorption characteristic of fluorescent probe with and without ATP; format: physicochemical; conditions: 10 μM, pH 5.5 PBS (0.1% acetonitrile)
Experimental: Specifically, to observe the absorption characteristic of the fluorescent probe, the present inventors measured an absorbance spectrum by filling, with a pH 5.5 PBS solution (with 0.1% acetonitrile) comprising 10 μM Compound 4, a quartz fluorescence cell (114F-QS, Hellma Analytics) with a 1 cm light path, and a graph of the absorbance (y-axis) with respect to the wavelength (x-axis) is shown in FIG. 1A. In addition, another absorbance spectrum was measured by filling a quartz fluorescence cell (114F-QS, Hellma Analytics) with a 1 cm light path with a pH 5.5 PBS solution (with 0.1% acetonitrile) comprising 10 μM Compound 4 and 1 mM ATP, and a graph of the absorbance (y-axis) with respect to the wavelength (x-axis) is shown in FIG. 1B. […] On the other hand, in FIG. 1B in which ATP was detected, a new absorption was observed near 540 nm in addition to 400 nm. The absorbance spectra were obtained using the HP 8453 UV/Vis spectrophotometer.

[2] = Fluorescence ATP detection characteristic, ratiometric, in PBS solution
Experimental: Specifically, to observe the ATP detection characteristic of Compound 4, the present inventors measured a fluorescence spectrum (the fluorescence spectrum was obtained using a Photon Technical International Fluorescence System) by filling a quartz fluorescence cell (114F-QS, Hellma Analytics) with a 1 cm light path with a pH 5.5 PBS solution (with 0.1% acetonitrile) comprising 10 μM Compound 4 and ATP (0.0-1.0 mM), and graphs of the normalized fluorescence intensity (y-axis) with respect to the wavelength (x-axis) are shown in FIG. 2A. […] In addition, to assess the feasibility of quantification by a ratiometric detection system, the correlation between the ATP concentration (x-axis) and the fluorescence ratio (the ratio between two types of fluorescence) (y-axis) was provided in FIG. 2B. As appears in FIG. 2B, the proportional relationship between the ATP concentration and the ratio between two types of fluorescence proves the feasibility of quantification by a ratiometric detection system.
In order to assess the correlation between the ATP detection by Compound 4 and the pH of the solution, the present inventors measured a fluorescence spectrum (the fluorescence spectrum was obtained using a Photon Technical International Fluorescence System) by filling a quartz fluorescence cell (114F-QS, Hellma Analytics) with a 1 cm light path with a PBS solution (with 0.1% acetonitrile) with a pH range of 4.0 to 8.0 comprising 10 μM Compound 4 and ATP (0.0-1.0 mM), and graphs of the fluorescence ratio (y-axis) with respect to the pH (x-axis) are shown in FIG. 3A. According to FIG. 3A, the detectability changed with pH. It was observed that ATP was detected only under acidic conditions (pH 4.8-5.8) of lysosomes, which are the only organelles maintaining acidic conditions in cells, and was not detected at near-neutral pH (pH 7.0-7.5), which corresponds to the pH of most cells. In addition, the fluorescence ratio (y-axis) that changes with respect to the ATP concentration (x-axis) is provided for the pH range of 4.5 to 5.5 in FIG. 3B.

[3] = Selectivity of ATP detection among various cations and anions (fluorescence ratio); conditions: 10 μM, pH 5.5 PBS, analytes at 1 mM
Experimental: In order to examine the selectivity of Compound 4 in ATP detection, the present inventors measured a fluorescence spectrum (the fluorescence spectrum was obtained using a Photon Technical International Fluorescence System) by filling a quartz fluorescence cell (114F-QS, Hellma Analytics) with a 1 cm light path with a pH 5.5 PBS solution (with 0.1% acetonitrile) comprising Compound 4 at 10 μM and various cations and anions (ATP, ADP, AMP, cytidine triphosphate (CTP), uridine triphosphate (UTP), guanosine triphosphate (GTP), thymine triphosphate (TTP), […] (PPi), phosphoric acid (H3PO4), nitrate anions (NO3^−), phosphate anions (PO4^3−), dithionite ion (S2O4^2−), sulfate ion (SO4^2−), acetate ion, nitrite ion (NO2^−), perchlorate ions (ClO4^−), citrate ions, monohydrogen phosphate ions (HPO4^2−), cyanide ions (CN^−), nickel ions (Ni^+), silver ions (Ag^+), manganese ions (Mn^2+), palladium ions (Pd^2+), cadmium ions (Cd^2+), cobalt ions (Co^3+), iron ions (Fe^+), zinc ion (Zn^2+), copper ion (Cu^2+), potassium ion (K^+), magnesium ion (Mg^2+), calcium ions (Ca^2+), sodium ions (Na^+), lead ions (Pb^2+), and chromium ions (Cr^3+)) at 1 mM, and the fluorescence ratios (y-axis) for various analytes (x-axis) were provided in FIG. 4.

HeLa cells = assay: MTT assay cytotoxicity / cell viability; format: cell-based
Experimental: The present inventors examine the cytotoxicity of Compound 4 (R1═R2═H), which is the fluorescent probe according to embodiments of the present invention, by treating HeLa cells (human uterine cancer cells) with the compound, and the results are provided in FIG. 5.
To examine the cytotoxicity of Compound 4, an MTT assay was conducted on the HeLa cells and the cell viability was assessed.
Specifically, the cells (100 μL/well) were prepared in a 96-well plate at the density of about 5×10^3 cells per well. The cells were treated with Compound 4 at the concentration of 10, 30, 50, or 100 μM, cultured for 1 hour, and then washed with a PBS buffer solution. 25 μL of a 5 mg/mL 3-(4,5-[…])-2,5-diphenyltetrazolium bromide (MTT) solution was put in each well. After culturing for 2 hours at 37° C., the medium was removed, formazan crystals were dissolved in dimethyl sulfoxide (DMSO), and the absorbance was measured using a plate reader. According to FIG. 5, Compound 4 was confirmed to have low cytotoxicity up to the concentration of 10 μM within 24 hours (about 8% of the cells died). In addition, even when the concentration of Compound 4 was increased to 100 μM, it was confirmed that cytotoxicity within 8 hours was low (about 20% of the cells died), which indicated the possibility of conducting experiments in the corresponding range.

[4] = test system: lysosomal ATP in HeLa cells; assay: Lysosomal selectivity: colocalization with LysoTracker by one-photon and two-photon fluorescence microscopy; format: cell-based, human
Experimental: The present inventors treated HeLa cells with Compound 4 (R1═R2═H), which is a fluorescent probe, examined a fluorescence emission phenomenon through two-photon fluorescence microscopy, and assessed lysosomal selectivity by treating the cells also with LysoTracker (Life Technologies Corp.), which is a lysosome marker widely used to assess lysosomal selectivity, and then performing one-photon and two-photon fluorescence microscopy. The scale bar in FIG. 6 is 25 μm.
Each cell was cultured in Minimum Essential Medium with Earle's Balanced Salts (MEM/EBSS) of Hyclone™ GE Healthcare Life Sciences and a Dulbecco's modified Eagle's medium (DMEM), and the culture was carried out at 37° C. […] The cells prepared as thus were observed through two-photon fluorescence microscopy to obtain fluorescence images, and the two-photon fluorescence microscopic images were obtained at a 780 nm excitation wavelength and through a laser power of 4 mW respectively in the blue channel (440-490 nm), yellow channel (550-600 nm), and red channel (650-700 nm). […]
The experiment was repeated with LysoTracker Deep Red (Life Technologies Corp.). HeLa cells were treated with LysoTracker, and then a fluorescence image thereof was obtained with a one-photon fluorescence microscope (TCS SP5 II, Leica, Germany). […]

[5] = test system: lysosomal ATP in rat brain tissue; assay: Two-photon microscopic imaging of rat brain tissue treated with fluorescent probe; conditions: rat brain tissue slice, 30 μM, 20 minutes, 780 nm two-photon excitation
Experimental: The present inventors treated a rat brain tissue with Compound 4 (R1═R2═H), which is the fluorescent probe according to embodiments of the present invention and observed the changes in fluorescence through two-photon fluorescence microscopy, and the results are provided in FIG. 8. The scale bar in FIG. 8 is 80 μm.
Specifically, to obtain a two-photon fluorescence microscopic image of a rat tissue treated with Compound 4, an experiment was carried out under a condition of isolated from light (in a dark room) using a […] rat (5 weeks old, male, Samtako Inc.). The brain of the rat was dissected and washed with a PBS buffer solution, and then the individual organs were frozen with dry ice for 5 minutes. The frozen organs were broken with a hammer, and 50 μm-thick tissue slice samples were prepared using a cryostat machine (CM3000, Leica). […] The fluorescence was observed through two-photon fluorescence microscopy. The two-photon fluorescence microscope was configured with a 20× objective lens (HCX APO L 20×/1.00 W, Leica, Germany), and the observation was carried out using a Ti: Sapphire laser (Chameleon Ultra II, Coherent) with 6 mW laser output and at a 780 nm two-photon excitation wavelength.

Compound: CCNc1cc2c(cc1C)C1(c3cc(C)c(NCC)cc3O2)c2ccccc2C(=O)N1CCNCCNCCNC1=C2C=CC=[N+]2[B-](F)(F)n2cccc21 [Compound 4, 10-((2-((2-((2-(3′,6′-bis(ethylamino)-2′,7′-dimethyl-3-oxospiro[isoindoline-1,9′-xanthen]-2-yl)ethyl)amino)ethyl)amino)ethyl)amino)-5,5-difluoro-5H-dipyrrolo[1,2-c:2′,1′-f][1,3,2]diazaborinin-4-ium-5-uide]
- new absorption wavelength when ATP was detected ([1]; 1 mM ATP, in addition to 400 nm): ~540 nm
- single absorption wavelength of the fluorescent probe ([1]; no ATP): ~400 nm
- pH range in which ATP was detected ([2]; 10 μM, PBS pH 4.0 to 8.0, ATP 0.0-1.0 mM, acidic conditions of lysosomes): 4.8-5.8 pH
- change of fluorescence intensity near 550 nm as ATP concentration increased ([2]; 10 μM, pH 5.5 PBS (0.1% acetonitrile), ATP 0.0-1.0 mM): greatly increased
- ATP detection at near-neutral pH ([2]; pH 7.0-7.5, 10 μM, ATP 0.0-1.0 mM): not detected
- selectivity in ATP detection among various cations and anions [3]: highly selective to ATP
- cytotoxicity, cells died (HeLa cells; 100 μM, within 8 hours): about 20%
- cytotoxicity, cells died (HeLa cells; up to 10 μM, within 24 hours): about 8%
- lysosomal selectivity [4]: highly selective to lysosomes
- colocalization factor with LysoTracker ([4]; 10 μM Compound 4 and 50 nM LysoTracker, 1 hour): about 0.95
- detection of lysosomal ATP in deep tissue [5]: selectively detected lysosomal ATP
